# Measurements from ChEMBL document CHEMBL1126485, “Synthesis of nucleoside analogues with a 1,5-anhydrohexitol moiety” (1993).
# Key:
# [1] = system: Human alphaherpesvirus 2; assay: Concentration required for inhibition of proliferation of herpes simplex virus type II at 0.07 ug/mL.; format: functional
# [2] = Concentration required for inhibition of proliferation of herpes simplex virus type I at 0.07 ug/mL.; format: functional; settings: Human alphaherpesvirus 1
smiles,measurement,setting,value
O=c1[nH]c(=O)n(C2COC(CO)C(O)C2)cc1I (configuration not stated),inhibition at 0.07 µg/mL,[1],50%
same,inhibition at 0.07 µg/mL,[2],50%
